Patent US5143929A, “2-substituted thiazolidinone, oxazolidinone, and imidazolidinone derivatives of fenamates as antiinflammatory agents” (Warner-Lambert Company, priority 1991, dated 1992)
Where two headings read alike, the source gives them in different places.

How the values were obtained:
5-lipoxygenase = molecular target: T1, 5-lipoxygenase (Rattus norvegicus, UniProt P12527); assay: ARBL whole cell 5-lipoxygenase assay (inhibition of LTB4 formation in RBL-1 cells); format: cell-based; settings: for IC50: A23187 stimulated, read-out: ARBL: IC50 (50% inhibition of LTB4 formation)
T1 construct: host or cells: RBL-1 (rat basophilic leukemia)
T1 sequence (P12527 1-673): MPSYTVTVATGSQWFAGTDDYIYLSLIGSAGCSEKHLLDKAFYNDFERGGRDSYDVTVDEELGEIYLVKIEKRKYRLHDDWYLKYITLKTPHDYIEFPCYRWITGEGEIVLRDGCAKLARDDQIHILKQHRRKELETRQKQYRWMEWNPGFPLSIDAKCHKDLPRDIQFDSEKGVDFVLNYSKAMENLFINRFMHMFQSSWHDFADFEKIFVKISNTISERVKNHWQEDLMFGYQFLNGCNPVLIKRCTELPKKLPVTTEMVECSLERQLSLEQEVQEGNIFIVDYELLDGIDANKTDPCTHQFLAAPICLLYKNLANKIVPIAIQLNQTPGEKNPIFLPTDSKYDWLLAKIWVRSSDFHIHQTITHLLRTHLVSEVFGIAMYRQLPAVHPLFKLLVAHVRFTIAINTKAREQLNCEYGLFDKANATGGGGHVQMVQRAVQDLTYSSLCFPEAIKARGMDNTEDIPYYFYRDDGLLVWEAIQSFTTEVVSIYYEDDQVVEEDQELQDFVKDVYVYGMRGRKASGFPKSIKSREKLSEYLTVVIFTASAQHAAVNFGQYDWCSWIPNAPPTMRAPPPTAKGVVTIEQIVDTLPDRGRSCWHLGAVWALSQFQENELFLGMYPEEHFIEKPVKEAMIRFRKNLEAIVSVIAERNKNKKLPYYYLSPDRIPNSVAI
Method: (§1) The rat basophilic leukemia cell line (RBL-1) was obtained from the American Type Culture Collection (Rockville, Md.).
(§2) Radioimmunoassay (RIA) kits of LTB4 and PGF2α were obtained from Amersham (Arlington Heights, Ill.) and Seragen (Boston, Mass.), respectively.
(§3) All tissue culture media were obtained from GIBCO (Grand Island, N.Y.).
(§4) RBL-1 cells are grown in suspension culture in Eagles minimum essential medium supplemental with 12% fetal bovine serum at 37° C. in an incubator supplied with air--5% carbon dioxide. Cells are harvested by centrifugation. They are washed with cold phosphate-buffered saline, pH 7.4 (PBS; NaCl, 7.1 g; Na2 HPO4, 1.15 g; KH2 PO4, 0.2 g; and KCl, 0.2 g/L). Cells are incubated with and without test agent (in DMSO) (1% DMSO is without effect on arachidonic acid metabolism) for 10 minutes at room temperature. Calcium ionophore A23187 (5 μM) is added and cells are incubated for 7 minutes at 37° C. The reaction is stopped by chilling the tubes on ice for 10 minutes. Cells are finally suspended in PBS containing 1.0 mM calcium at a density of 2×10^6 cells/mL. Cells are separated by centrifugation and the supernatant is stored at -20° C. Aliquots (100 μL) are analyzed for LTB4 and PGF2α using radioimmunoassay kits as provided by the supplier.
(§5) Table 1 contains biochemical data for compounds of formula I obtained from this whole cell assay as IC50 s which are calculated as the concentration of a test compound in micromoles (μM) causing 50% inhibition of LTB4 or PGF2α formation.

cyclooxygenase = molecular target: T2, cyclooxygenase (Rattus norvegicus, UniProt Q63921); assay: ARBC whole cell cyclooxygenase assay (inhibition of PGF2α formation in RBL-1 cells); format: cell-based; settings: for IC50: A23187 stimulated, Table 2 (formula II), read-out: ARBC: IC50 (50% inhibition of PGF2α formation)
T2 construct: host or cells: RBL-1 (rat basophilic leukemia)
T2 sequence (Q63921 27-602): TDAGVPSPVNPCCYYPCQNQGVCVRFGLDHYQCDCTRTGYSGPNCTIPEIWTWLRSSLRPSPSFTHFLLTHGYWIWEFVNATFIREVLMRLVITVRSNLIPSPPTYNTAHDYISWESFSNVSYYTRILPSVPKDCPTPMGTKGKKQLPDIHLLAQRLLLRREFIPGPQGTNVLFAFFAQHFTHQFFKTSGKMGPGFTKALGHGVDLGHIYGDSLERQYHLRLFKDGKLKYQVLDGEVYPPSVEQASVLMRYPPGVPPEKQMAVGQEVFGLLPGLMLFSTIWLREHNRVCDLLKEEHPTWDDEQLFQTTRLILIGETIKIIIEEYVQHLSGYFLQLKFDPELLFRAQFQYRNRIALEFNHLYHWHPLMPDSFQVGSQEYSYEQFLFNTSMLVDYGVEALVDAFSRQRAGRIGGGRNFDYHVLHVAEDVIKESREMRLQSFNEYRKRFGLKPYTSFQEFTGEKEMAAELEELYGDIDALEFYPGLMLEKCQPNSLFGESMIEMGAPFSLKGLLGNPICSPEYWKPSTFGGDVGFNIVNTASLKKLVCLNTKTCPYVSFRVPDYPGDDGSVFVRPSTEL
Method: as §1, §2, §3, §4, §5

[1] = read-out: ARBL: % inhibition of LTB4 at 10 μM, 10 μM, A23187 stimulated, Table 2 (formula II)
[2] = read-out: ARBC: % inhibition of PGF2α at 10 μM, 10 μM, A23187 stimulated, Table 2 (formula II)
[3] = read-out: ARBL: % inhibition of LTB4 at 10 μM, 10 μM, A23187 stimulated, Table 1 (formula I)
[4] = read-out: ARBC: % inhibition of PGF2α at 10 μM, 10 μM, A23187 stimulated, Table 1 (formula I)

Structure (SMILES): Cc1ccc(Cl)c(Nc2ccccc2/C=C2\SC(=N)NC2=O)c1Cl [Example 5, (Z)-5-[[2-[(2,6-Dichloro-3-methylphenyl)amino]phenyl]methylene]-2-imino-4-thiazolidinone]
- inhibition at 10 µM (5-lipoxygenase; [1]): < 40%
- inhibition at 10 µM (cyclooxygenase; [2]): < 40%

Structure (SMILES): O=C1NC(=S)S/C1=C\c1ccccc1Nc1cccc(C(F)(F)F)c1 [Example 2, (Z)-2-Thioxo-5-[[2-[[3-(trifluoromethyl)phenyl]amino]phenyl]methylene]-4-thiazolidinone]
- inhibition at 10 µM (5-lipoxygenase; [1]): < 40%
- inhibition at 10 µM (cyclooxygenase; [2]): < 40%

Structure (SMILES): CC(C)(C)c1cc(Nc2ccccc2/C=C2\SC(=S)NC2=O)cc(C(C)(C)C)c1O [Example 12]
- IC50 (5-lipoxygenase; Table 2 (formula II)): 1470 nM
- IC50 (cyclooxygenase): 2.25 µM

Structure (SMILES): Cc1ccc(Cl)c(Nc2ccccc2/C=C2\SC(=S)N(C)C2=O)c1Cl [Example 3, (Z)-5-[[2-[(2,6-Dichloro-3-methylphenyl)amino]phenyl]methylene]-3-methyl-2-thioxo-4-thiazolidinone]
- inhibition at 10 µM (5-lipoxygenase; [3]): 100%
- inhibition at 10 µM (cyclooxygenase; [4]): < 40%

Structure (SMILES): CN1C(=O)/C(=C/c2ccccc2Nc2cccc(C(F)(F)F)c2)SC1=S [Example 4]
- inhibition at 10 µM (5-lipoxygenase; [3]): < 40%
- inhibition at 10 µM (cyclooxygenase; [4]): < 40%

Structure (SMILES): Cc1ccc(Cl)c(Nc2ccccc2/C=C2\SC(NC#N)=NC2=O)c1Cl [Example 8]
- IC50 (5-lipoxygenase; Table 2 (formula II)): 1480 nM
- IC50 (cyclooxygenase): 10.2 µM

Structure (SMILES): Cc1ccc(Cl)c(Nc2ccccc2/C=C2\SC(=S)NC2=O)c1Cl [Example 1, (Z)-5-[[2-[(2,6-Dichloro-3-methylphenyl)amino]phenyl]methylene]-2-thioxo-4-thiazolidinone]
- IC50 (5-lipoxygenase; Table 2 (formula II)): 820 nM
- IC50 (cyclooxygenase): 5.96 µM

Structure (SMILES): O=C1NC(=O)/C(=C/c2ccccc2Nc2cccc(C(F)(F)F)c2)S1 [Example 9, (Z)-5-[[2-[[3-(Trifluoromethyl)phenyl]amino]phenyl]methylene]-2,4-thiazolidinedione]
- inhibition at 10 µM (5-lipoxygenase; [1]): < 40%
- inhibition at 10 µM (cyclooxygenase; [2]): < 40%

Structure (SMILES): Cc1ccc(Cl)c(Nc2ccccc2/C=C2\SC(=S)N(CC(=O)O)C2=O)c1Cl [Example 10, (Z)-5-[[2-[[2-Dichloro-3-methylphenyl)-amino]phenyl]methylene]-4-oxo-2-thioxo-3-thiazolidine acetic acid]
- IC50 (5-lipoxygenase; Table 1 (formula I)): 2180 nM
- inhibition at 10 µM (cyclooxygenase; [4]): < 40%

Structure (SMILES): CSC1=NC(=O)/C(=C/c2ccccc2Nc2c(Cl)ccc(C)c2Cl)S1 [Example 6, (Z)-5-[[2-[(2,6-Dichloro-3-methylphenyl)amino]phenyl]methylene]-2-(methylthio)-4(5H)-thiazolone]
- inhibition at 10 µM (5-lipoxygenase; [1]): 100%
- inhibition at 10 µM (cyclooxygenase; [2]): < 40%

Structure (SMILES): Cc1ccc(Cl)c(Nc2ccccc2/C=C2\SC(=O)NC2=O)c1Cl [Example 7, (Z)-5-[[2-[(2,6-Dichloro-3-methylphenyl)amino]phenyl]methylene]-2,4-thiazolidinedinone]
- inhibition at 10 µM (5-lipoxygenase; [1]): 55%
- inhibition at 10 µM (cyclooxygenase; [2]): < 40%
